Data as given in patent publication US7312245B2 (priority 2001, dated 2007).
Where two headings read alike, the source gives them in different places.

What was measured:
Assay type in all cases: in vivo
Pyricularia oryzae [1] = conditions: granules applied to water surface at 3 kg/10 ares; rice Koshihikari; inoculated 30 days after application; lesions checked after 1 week
Pyricularia oryzae [2] = conditions: spray application of wettable powder diluted to 500 ppm; rice Koshihikari 2-leaf stage; spray-inoculated with Pyricularia oryzae spores; examined after 7 days
Pyricularia oryzae [3] = conditions: nursery box treated with granules 50 g per box; rice Koshihikari; inoculated 30 days after transplantation; lesions counted after 1 week

CSCCOC(=O)NC(CNC(=O)c1ccc(Cl)cc1)C(C)C (stereo not drawn) [compound 1258]
Grade of Effect (preventive value, rice blast controlling effect) (Pyricularia oryzae [1]): A (From 80% to 100%)
Grade of Effect (preventive value, rice blast controlling effect) (Pyricularia oryzae [2]): A (100%)
Grade of Effect (preventive value, rice blast controlling effect) (Pyricularia oryzae [3]): A (From 80% to 100%)

CSCCOC(=O)NC(CNC(=O)c1ccc(C)cc1)C(C)C (stereo not drawn) [compound 1261]
Grade of Effect (preventive value, rice blast controlling effect) (Pyricularia oryzae [1]): A (From 80% to 100%)
Grade of Effect (preventive value, rice blast controlling effect) (Pyricularia oryzae [2]): A (100%)
Grade of Effect (preventive value, rice blast controlling effect) (Pyricularia oryzae [3]): A (From 80% to 100%)

CC(C)C(CNC(=O)c1ccc(Cl)cc1)NC(=O)OCCS(C)(=O)=O (stereo not drawn) [compound 1273]
Grade of Effect (preventive value, rice blast controlling effect) (Pyricularia oryzae [1]): A (From 80% to 100%)
Grade of Effect (preventive value, rice blast controlling effect) (Pyricularia oryzae [2]): A (100%)
Grade of Effect (preventive value, rice blast controlling effect) (Pyricularia oryzae [3]): A (From 80% to 100%)

Cc1ccc(C(=O)NCC(NC(=O)OCCS(C)(=O)=O)C(C)C)cc1 (stereo not drawn) [compound 1276]
Grade of Effect (preventive value, rice blast controlling effect) (Pyricularia oryzae [1]): A (From 80% to 100%)
Grade of Effect (preventive value, rice blast controlling effect) (Pyricularia oryzae [2]): A (100%)
Grade of Effect (preventive value, rice blast controlling effect) (Pyricularia oryzae [3]): A (From 80% to 100%)
